Laboratory results reported in patent publication US9833497B2, “Human originated EGF domain proteins and use of the same” (CHENGDU SOURCEBIO LIMITED-LIABILITY COMPANY, priority 2013, dated 2017).

Columns and labels:
Assay type in all cases: cell-based
Aeromonas hydrophila = assay: MIC against Gram-negative bacteria: Aeromonas hydrophila; conditions: for MIC against A. hydrophila / MIC (μg/mL) A. hydrophila: 5×10^5 CFU/mL
Summary of the method: (§1)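 First, colonies from LB agar were grown in LB at 37° C, 185 rpm, to McFarland turbidity 0.5, then centrifuged and resuspended in fresh LB. Next, wells received 5×10^5 CFU/mL bacteria plus two-fold serially diluted EGF domain protein (triplicate). Finally, plates were shaken at 37° C and the no-growth concentration taken as MIC.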

Serratia marcescens = assay: MIC against Gram-negative bacteria: Serratia marcescens; conditions: for MIC against S. marcescens / MIC (μg/mL) S. marcescens: 5×10^5 CFU/mL
Summary of the method: as §1

Pseudomonas aeruginosa = assay: MIC against Gram-negative bacteria: Pseudomonas aeruginosa; conditions: for MIC against P. aeruginosa / MIC (μg/mL) P. aeruginosa: 5×10^5 CFU/mL
Summary of the method: as §1

E. coli DH5α = assay: Antibacterial activity: MIC and growth curve against E. coli DH5α in 96-well plate; conditions: minimal inhibitory concentration against E. coli DH5α; 96-well plate, 5×10^5 CFU/mL, 37° C., judged after 8 h
Summary of the method: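 Log-phase bacteria (OD600 ~0.5) resuspended in LB at 5×10^5 CFU/mL, exposed to recombinant protein at 50, 25, 12.5 μg/mL final in triplicate, 37 °C shaking at 175 rpm. OD600 read every 30 min; MIC is lowest concentration showing no growth.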

Klebsiella pneumonia = assay: MIC against Gram-negative bacteria: Klebsiella pneumonia; conditions: for MIC against K. pneumonia / MIC (μg/mL) K. pneumonia: 5×10^5 CFU/mL
Summary of the method: as §1

Citrobacter diversus = assay: MIC against Gram-negative bacteria: Citrobacter diversus; conditions: for MIC against C. diversus / MIC (μg/mL) C. diversus: 5×10^5 CFU/mL
Summary of the method: as §1

Moraxella catarrhalis = assay: MIC against Gram-negative bacteria: Moraxella catarrhalis; conditions: for MIC against M. catarrhalis / MIC (μg/mL) M. catarrhalis: 5×10^5 CFU/mL
Summary of the method: as §1

E. coli BL21 = assay: MIC against Gram-negative bacteria: E. coli BL21; conditions: for MIC against E. coli BL21 / MIC (μg/mL) E. coli BL21: 5×10^5 CFU/mL
Summary of the method: as §1

Proteus mirabilis = assay: MIC against Gram-negative bacteria: Proteus mirabilis; conditions: for MIC against P. mirabilis / MIC (μg/mL) P. mirabilis: 5×10^5 CFU/mL
Summary of the method: as §1

Proteus vulgaris = assay: MIC against Gram-negative bacteria: Proteus vulgaris; conditions: for MIC against P. vulgaris / MIC (μg/mL) P. vulgaris: 5×10^5 CFU/mL
Summary of the method: as §1

Enterobacter cloacae = assay: MIC against Gram-negative bacteria: Enterobacter cloacae; conditions: for MIC against E. cloacae / MIC (μg/mL) E. cloacae: 5×10^5 CFU/mL
Summary of the method: as §1

[1] = A. hydrophila, 10 h cultivation at 37° C.
[2] = S. marcescens, 10 h cultivation at 37° C.
[3] = P. aeruginosa, 10 h cultivation at 37° C.
[4] = K. pneumonia, 10 h cultivation at 37° C.
[5] = C. diversus, 10 h cultivation at 37° C.
[6] = M. catarrhalis, 10 h cultivation at 37° C.
[7] = E. coli BL21, 10 h cultivation at 37° C.
[8] = P. mirabilis, 10 h cultivation at 37° C.
[9] = P. vulgaris, 10 h cultivation at 37° C.
[10] = E. cloacae, 10 h cultivation at 37° C.
[11] = Aeromonas hydrophila, 96-well plate, 37° C., 10 h
[12] = Serratia marcescens, 96-well plate, 37° C., 10 h
[13] = Pseudomonas aeruginosa, 96-well plate, 37° C., 10 h
[14] = Klebsiella pneumonia, 96-well plate, 37° C., 10 h
[15] = Citrobacter diversus, 96-well plate, 37° C., 10 h
[16] = Moraxella catarrhalis, 96-well plate, 37° C., 10 h
[17] = E. coli BL21, 96-well plate, 37° C., 10 h
[18] = Proteus mirabilis, 96-well plate, 37° C., 10 h
[19] = Proteus vulgaris, 96-well plate, 37° C., 10 h
[20] = Enterobacter cloacae, 96-well plate, 37° C., 10 h

PRT926 (EINECQSNPCVNNGQCVDKVNRFQCLCPPGFTGPVCQ; listed as Homo sapiens)
MIC (Aeromonas hydrophila; [1]): 50 µg/mL | MIC (Serratia marcescens; [2]): 12.5 µg/mL | MIC (Pseudomonas aeruginosa; [3]): 25 µg/mL | MIC (E. coli DH5α): 25 µg/mL | MIC (Klebsiella pneumonia; [4]): 12.5 µg/mL | MIC (Citrobacter diversus; [5]): 12.5 µg/mL | MIC (Moraxella catarrhalis; [6]): 25 µg/mL | MIC (E. coli BL21; [7]): 50 µg/mL | MIC (Proteus mirabilis; [8]): 50 µg/mL | MIC (Proteus vulgaris; [9]): 25 µg/mL | MIC (Enterobacter cloacae; [10]): 25 µg/mL

PRT1422 (DVDDCILEPSPCPQRCVNTQGGFECHCYPNYDLVDGECV; listed as Homo sapiens)
MIC against A. hydrophila (Aeromonas hydrophila; Aeromonas hydrophila, 10 h cultivation at 37° C.): 50 µg/mL | MIC against S. marcescens (Serratia marcescens; Serratia marcescens, 10 h cultivation at 37° C.): 12.5 µg/mL | MIC against P. aeruginosa (Pseudomonas aeruginosa; Pseudomonas aeruginosa, 10 h cultivation at 37° C.): 12.5 µg/mL | MIC (E. coli DH5α): 12.5 µg/mL | MIC against K. pneumonia (Klebsiella pneumonia; Klebsiella pneumonia, 10 h cultivation at 37° C.): 50 µg/mL | MIC against C. diversus (Citrobacter diversus; Citrobacter diversus, 10 h cultivation at 37° C.): 12.5 µg/mL | MIC against M. catarrhalis (Moraxella catarrhalis; Moraxella catarrhalis, 10 h cultivation at 37° C.): 50 µg/mL | MIC against E. coli BL21 (E. coli BL21; [7]): 12.5 µg/mL | MIC against P. mirabilis (Proteus mirabilis; Proteus mirabilis, 10 h cultivation at 37° C.): 12.5 µg/mL | MIC against P. vulgaris (Proteus vulgaris; Proteus vulgaris, 10 h cultivation at 37° C.): 50 µg/mL | MIC against E. cloacae (Enterobacter cloacae; Enterobacter cloacae, 10 h cultivation at 37° C.): 12.5 µg/mL

PRT212 (DIDECESGAHQCSEAQTCVNFHGGYRCV; listed as Homo sapiens)
MIC (μg/mL) A. hydrophila (Aeromonas hydrophila; [1]): 25 µg/mL | MIC (μg/mL) S. marcescens (Serratia marcescens; [2]): 12.5 µg/mL | MIC (μg/mL) P. aeruginosa (Pseudomonas aeruginosa; [3]): 12.5 µg/mL | MIC (E. coli DH5α): 12.5 µg/mL | MIC (μg/mL) K. pneumonia (Klebsiella pneumonia; [4]): 50 µg/mL | MIC (μg/mL) C. diversus (Citrobacter diversus; [5]): 12.5 µg/mL | MIC (μg/mL) M. catarrhalis (Moraxella catarrhalis; [6]): 25 µg/mL | MIC (μg/mL) E. coli BL21 (E. coli BL21; [7]): 50 µg/mL | MIC (μg/mL) P. mirabilis (Proteus mirabilis; [8]): 12.5 µg/mL | MIC (μg/mL) P. vulgaris (Proteus vulgaris; [9]): 12.5 µg/mL | MIC (μg/mL) E. cloacae (Enterobacter cloacae; [10]): 12.5 µg/mL

PRT81 (TCGPCNCDVSKGFDPDCNKTSGECHCKENHYRPPGSPTCL; listed as Homo sapiens)
MIC (μg/mL) A. hydrophila (Aeromonas hydrophila; [11]): 25 µg/mL | MIC (μg/mL) S. marcescens (Serratia marcescens; [12]): 50 µg/mL | MIC (μg/mL) P. aeruginosa (Pseudomonas aeruginosa; [13]): 12.5 µg/mL | MIC (E. coli DH5α): 12.5 µg/mL | MIC (μg/mL) K. pneumonia (Klebsiella pneumonia; [14]): 25 µg/mL | MIC (μg/mL) C. diversus (Citrobacter diversus; [15]): 12.5 µg/mL | MIC (μg/mL) M. catarrhalis (Moraxella catarrhalis; [16]): 50 µg/mL | MIC (μg/mL) E. coli BL21 (E. coli BL21; [17]): 12.5 µg/mL | MIC (μg/mL) P. mirabilis (Proteus mirabilis; [18]): 12.5 µg/mL | MIC (μg/mL) P. vulgaris (Proteus vulgaris; [19]): 25 µg/mL | MIC (μg/mL) E. cloacae (Enterobacter cloacae; [20]): 12.5 µg/mL

PRT576 (CTCNLLGTNPQQCPSPDQCHCDPSSGQCPCLPNVQGPSCDRCAPNFWNLTSGHGCQP; listed as Homo sapiens)
MIC against A. hydrophila (Aeromonas hydrophila; 96-well plate, 37° C., 10 h): 12.5 µg/mL | MIC against S. marcescens (Serratia marcescens; 96-well plate, 37° C., 10 h): 25 µg/mL | MIC against P. aeruginosa (Pseudomonas aeruginosa; 96-well plate, 37° C., 10 h): 12.5 µg/mL | MIC (E. coli DH5α): 12.5 µg/mL | MIC against K. pneumonia (Klebsiella pneumonia; 96-well plate, 37° C., 10 h): 12.5 µg/mL | MIC against C. diversus (Citrobacter diversus; 96-well plate, 37° C., 10 h): 12.5 µg/mL | MIC against M. catarrhalis (Moraxella catarrhalis; 96-well plate, 37° C., 10 h): 50 µg/mL | MIC against E. coli BL21 (E. coli BL21; 96-well plate, 37° C., 10 h): 12.5 µg/mL | MIC against P. mirabilis (Proteus mirabilis; 96-well plate, 37° C., 10 h): 12.5 µg/mL | MIC against P. vulgaris (Proteus vulgaris; 96-well plate, 37° C., 10 h): 50 µg/mL | MIC against E. cloacae (Enterobacter cloacae; 96-well plate, 37° C., 10 h): 12.5 µg/mL

PRT111 (DLDECASRSKSGEEDPQPQCQHLCHNYVGGYFCSCRPGYELQEDTHSCQ; listed as Homo sapiens)
MIC (μg/mL) A. hydrophila (Aeromonas hydrophila; [11]): 25 µg/mL | MIC (μg/mL) S. marcescens (Serratia marcescens; [12]): 12.5 µg/mL | MIC (μg/mL) P. aeruginosa (Pseudomonas aeruginosa; [13]): 12.5 µg/mL | MIC (E. coli DH5α): 12.5 µg/mL | MIC (μg/mL) K. pneumonia (Klebsiella pneumonia; [14]): 12.5 µg/mL | MIC (μg/mL) C. diversus (Citrobacter diversus; [15]): 12.5 µg/mL | MIC (μg/mL) M. catarrhalis (Moraxella catarrhalis; [16]): 25 µg/mL | MIC (μg/mL) E. coli BL21 (E. coli BL21; [17]): 12.5 µg/mL | MIC (μg/mL) P. mirabilis (Proteus mirabilis; [18]): 50 µg/mL | MIC (μg/mL) P. vulgaris (Proteus vulgaris; [19]): 25 µg/mL | MIC (μg/mL) E. cloacae (Enterobacter cloacae; [20]): 50 µg/mL
